Experimental data from patent US20060172992A1, “Therapeutic agent for overactive bladder resulting from cerebral infarction” (EISAI CO., LTD., priority 2004, published 2006).
“Also recorded” adds a separate entry of the source.

Tests used:
[1] = system: human with overactive bladder caused by cerebrovascular disease; conditions: cited from earlier work
[2] = system: rat with overactive bladder caused by cerebrovascular disease; conditions: cited from earlier work
cerebral infarction rats = test: Bladder pressure measurement after intraventricular administration, cerebral infarction rats; assay type: in vivo, rat
Method: After producing cerebral infarction rats, drug infusion tubes were placed in the lateral ventricles of the rats.
The process was conducted in the same manner as Example 5 except that metal tubes were inserted into lateral ventricles upon producing cerebral infarction rats. […] Feasibility of intraventricular administration was determined after injecting ink into the brain, sacrificing the rats and removing the brains to verify on their faces. […] As vehicle, saline was infused for […]. Experiments of five examples for each concentration were conducted.

[3] = system: overactive bladder model rats (cerebral infarction by left middle cerebral artery embolization); test: Bladder pressure measurement after intravenous administration, cerebral infarction rats (CI group)
[4] = 5×10^−4 mg/kg and 5×10^−5 mg/kg

For COc1ccc(C(=O)N2CCCC2=O)cc1 [Aniracetam], the micturition reflex [1] is listed as “suppression of micturition reflex is observed” and the micturition reflex [2] is listed as “suppression of micturition reflex is observed”.
With COc1cc2c(cc1OC)C(=O)C(CC1CCN(Cc3ccccc3)CC1)C2.Cl (stereo not drawn) [donepezil hydrochloride, 1-benzyl-4-[(5,6-dimethoxy-1-indanone)-2-yl]methylpiperidine hydrochloride] the “bladder capacity, dose comparison” value (cerebral infarction rats; cerebral infarction group, 5×10^−5 mg/ml) was “most increased”, the “increase in bladder capacity” value (cerebral infarction rats; cerebral infarction rats, 5×10^−5 mg/ml) was 95.8% and the “bladder capacity, difference from vehicle administration group” value (cerebral infarction rats; cerebral infarction rats, 5 μl of 5×10^−5 mg/ml and 5×10^−6 mg/ml, hydrochloride) was “increased with a significant margin”. The bladder capacity (cerebral infarction rats; cerebral infarction rats, 5 μl of 5×10^−7 to 5×10^−4 mg/ml, hydrochloride) was “notably increased”, the micturition contraction pressure (cerebral infarction rats; respective doses, versus vehicle, hydrochloride) was “No change; also recorded: no significant difference” and the micturition contraction pressure [3, 4] was “no change”. For the same molecule, the retained urine [3, 4] was “little retained urine”, the micturition contraction pressure ([3]; CI group, 5×10^−1 mg/kg) was “significantly increased” and the “bladder capacity, difference from vehicle administration group” value ([3]; CI group, 5×10^−4 mg/kg and 5×10^−5 mg/kg, hydrochloride) was “significant difference from the vehicle administration group”. The “increase in bladder capacity (percentage of change from control)” value ([3]; CI group, 5×10^−5 mg/kg) was 52.8%, the “percentage of change in bladder capacity” value ([3]; CI group, 5×10^−4 to 5×10^−5 mg/kg (bladder capacity most increased)) was 52.8% and the bladder capacity ([3]; CI group, 5×10^−7 to 5×10^−1 mg/kg every 30 minutes, hydrochloride, 1 mg/kg) was “increased the bladder capacities; also recorded: gradually increased”. For the same molecule, the “micturition contraction pressure, versus vehicle administration group” value ([3]; CI group, 5×10^−7 to 5×10^−2 mg/kg) was “no significant difference”.
